# What was measured:
# Format in all cases: cell-based
# [1] = tested on: Streptococcus cricetus LWP 760; assay: Influence of signal peptide on bacteriocin 760 production, flask culture (fraction protein at 215 nm, activity by Spot Test against C. jejuni and S. enteritidis)
# [2] = tested on: Lactobacillus salivarius PVD-32; assay: Influence of signal peptide on bacteriocin OR-7 production, flask culture (fraction protein at 215 nm, activity by Spot Test against C. jejuni and S. enteritidis)
# [3] = tested on: Streptococcus cricetus LWP 760; assay: Bacteriocin 760 production with signal peptide under scaled-up conditions (bioreactor); conditions: V-61 reactor, 10% Brucella Broth, LWP 760, LWP 320, peptide 0.22 mg added after two hours, pH 6.9, 37° C., 12 hours
# [4] = LWP 760 + LWP320, 0.001 mg peptide
# [5] = LWP 760 + LWP 320, 0.001 mg peptide added after about 2 hours
# [6] = LWP 760 + LWP 320, 0.001 mg peptide added after about 4 hours
# [7] = LWP 760 + LWP 320, 0.001 mg peptide added after about 6 hours
# [8] = LWP 760 + LWP 320, 0.01 mg peptide
# [9] = LWP 760 + LWP 320, 0.01 mg peptide added after about 2 hours
# [10] = LWP 760 + LWP 320, 0.01 mg peptide added after about 4 hours
# [11] = LWP 760 + LWP 320, 0.01 mg peptide added after about 6 hours
# [12] = LWP 760 + LWP 320, 0.1 mg peptide
# [13] = LWP 760 + LWP 320, 0.1 mg peptide added after about 2 hours
# [14] = LWP 760 + LWP 320, 0.1 mg peptide added after about 4 hours
# [15] = LWP 760 + LWP 320, 0.1 mg peptide added after about 6 hours
# [16] = LWP 760, no inducer, 0.001 mg peptide
# [17] = LWP 760, no inducer, 0.001 mg peptide added after about 2 hours
# [18] = LWP 760, no inducer, 0.001 mg peptide added after about 4 hours
# [19] = LWP 760, no inducer, 0.001 mg peptide added after about 6 hours
# [20] = LWP 760, no inducer, 0.01 mg peptide
# [21] = LWP 760, no inducer, 0.01 mg peptide added after about 2 hours
# [22] = LWP 760, no inducer, 0.01 mg peptide added after about 4 hours
# [23] = LWP 760, no inducer, 0.01 mg peptide added after about 6 hours
# [24] = LWP 760, no inducer, 0.1 mg peptide
# [25] = LWP 760, no inducer, 0.1 mg peptide add after about 6 hours
# [26] = LWP 760, no inducer, 0.1 mg peptide added after about 2 hours
# [27] = LWP 760, no inducer, 0.1 mg peptide added after about 4 hours
# [28] = 10% B-B, producer PVD-32 + inducer LWP-252, LWP 760 peptide 0.1 mg
sequence,measurement,setting,value
"WNKYKTNWVLSVCNTGCACAAVKGLT (listed as Streptococcus cricetus) [LWP 760 Signal Peptide, signal peptide isolated from Streptococcus cricetus LWP 760, stimulates bacteriocin 760 production]",Activity,[1]; [4],"1,638,840 AU/ml"
same,Increase in amount of protein vs. control,[1]; [4],1.06
same,Protein Concentration,[1]; [4],0.32 mg/mL
same,Protein Produced from 1 liter Culture Fluid,[1]; [4],105.6 mg
same,Specific Activity,[1]; [4],"5,121,375 Au/mg"
same,Activity,[1]; [5],"1,638,840 AU/ml"
same,Increase in amount of protein vs. control,[1]; [5],1.06
same,Protein Concentration,[1]; [5],0.32 mg/mL
same,Protein Produced from 1 liter Culture Fluid,[1]; [5],105.6 mg
same,Specific Activity,[1]; [5],"5,121,375 Au/mg"
same,Activity,[1]; [6],"1,638,840 AU/ml"
same,Increase in amount of protein vs. control,[1]; [6],1.06
same,Protein Concentration,[1]; [6],0.32 mg/mL
same,Protein Produced from 1 liter Culture Fluid,[1]; [6],105.6 mg
same,Specific Activity,[1]; [6],"5,121,375 Au/mg"
same,Activity,[1]; [7],"1,638,840 AU/ml"
same,Increase in amount of protein vs. control,[1]; [7],1.06
same,Protein Concentration,[1]; [7],0.32 mg/mL
same,Protein Produced from 1 liter Culture Fluid,[1]; [7],105.6 mg
same,Specific Activity,[1]; [7],"5,121,375 Au/mg"
same,Activity,[1]; [8],"6,533,600 AU/ml"
same,Increase in amount of protein vs. control,[1]; [8],5.2
same,Protein Concentration,[1]; [8],1.56 mg/mL
same,Protein Produced from 1 liter Culture Fluid,[1]; [8],514.8 mg
same,Specific Activity,[1]; [8],"4,201,025 Au/mg"
same,Activity,[1]; [9],"6,553,600 AU/ml"
same,Increase in amount of protein vs. control,[1]; [9],5.2
same,Protein Concentration,[1]; [9],1.56 mg/mL
same,Protein Produced from 1 liter Culture Fluid,[1]; [9],514.8 mg
same,Specific Activity,[1]; [9],"4,201,025 Au/mg"
same,Activity,[1]; [10],"13,107,200 AU/ml"
same,Increase in amount of protein vs. control,[1]; [10],7
same,Protein Concentration,[1]; [10],2.1 mg/mL
same,Protein Produced from 1 liter Culture Fluid,[1]; [10],693 mg
same,Specific Activity,[1]; [10],"6,241,523 Au/mg"
same,Protein Produced from 1 liter Culture Fluid,"[1]; LWP 760 + LWP 320, 0.01 mg peptide added after about 4 hours, listed as signal peptide from LWP 760",approximately 693 Mg
same,Activity,[1]; [11],"6,553,600 AU/ml"
same,Increase in amount of protein vs. control,[1]; [11],5.2
same,Protein Concentration,[1]; [11],1.56 mg/mL
same,Protein Produced from 1 liter Culture Fluid,[1]; [11],514.8 mg
same,Specific Activity,[1]; [11],"4,201,025 Au/mg"
same,Activity,[1]; [12],"1,638,840 AU/ml"
same,Increase in amount of protein vs. control,[1]; [12],0.9
same,Protein Concentration,[1]; [12],0.28 mg/mL
same,Protein Produced from 1 liter Culture Fluid,[1]; [12],92.4 mg
same,Specific Activity,[1]; [12],"5,853,000 Au/mg"
same,Activity,[1]; [13],"1,638,840 AU/ml"
same,Increase in amount of protein vs. control,[1]; [13],1.16
same,Protein Concentration,[1]; [13],0.35 mg/mL
same,Protein Produced from 1 liter Culture Fluid,[1]; [13],115.5 mg
same,Specific Activity,[1]; [13],"4,682,400 Au/mg"
same,Activity,[1]; [14],"1,638,840 AU/ml"
same,Increase in amount of protein vs. control,[1]; [14],1.16
same,Protein Concentration,[1]; [14],0.35 mg/mL
same,Protein Produced from 1 liter Culture Fluid,[1]; [14],115.5 mg
same,Specific Activity,[1]; [14],"4,682,400 Au/mg"
same,Activity,[1]; [15],"1,638,840 AU/ml"
same,Increase in amount of protein vs. control,[1]; [15],1.16
same,Protein Concentration,[1]; [15],0.35 mg/mL
same,Protein Produced from 1 liter Culture Fluid,[1]; [15],115.5 mg
same,Specific Activity,[1]; [15],"4,682,400 Au/mg"
same,Activity,[1]; [16],"1,638,840 AU/ml"
same,Increase in amount of protein vs. control,[1]; [16],1
same,Protein Concentration,[1]; [16],0.30 mg/mL
same,Protein Produced from 1 liter Culture Fluid,[1]; [16],99 mg
same,Specific Activity,[1]; [16],"5,462,666 Au/mg"
same,Activity,[1]; [17],"1,638,840 AU/ml"
same,Increase in amount of protein vs. control,[1]; [17],1
same,Protein Concentration,[1]; [17],0.30 mg/mL
same,Protein Produced from 1 liter Culture Fluid,[1]; [17],99 mg
same,Specific Activity,[1]; [17],"5,462,666 Au/mg"
same,Activity,[1]; [18],"1,638,840 AU/ml"
same,Increase in amount of protein vs. control,[1]; [18],1
same,Protein Concentration,[1]; [18],0.30 mg/mL
same,Protein Produced from 1 liter Culture Fluid,[1]; [18],99 mg
same,Specific Activity,[1]; [18],"5,462,666 Au/mg"
same,Activity,[1]; [19],"1,638,840 AU/ml"
same,Increase in amount of protein vs. control,[1]; [19],1
same,Protein Concentration,[1]; [19],0.30 mg/mL
same,Protein Produced from 1 liter Culture Fluid,[1]; [19],99 mg
same,Specific Activity,[1]; [19],"5,462,666 Au/mg"
same,Activity,[1]; [20],"1,638,840 AU/ml"
same,Increase in amount of protein vs. control,[1]; [20],1
same,Protein Concentration,[1]; [20],0.3 mg/mL
same,Protein Produced from 1 liter Culture Fluid,[1]; [20],99 mg
same,Specific Activity,[1]; [20],"5,462,666 Au/mg"
same,Activity,[1]; [21],"1,638,840 AU/ml"
same,Increase in amount of protein vs. control,[1]; [21],1
same,Protein Concentration,[1]; [21],0.30 mg/mL
same,Protein Produced from 1 liter Culture Fluid,[1]; [21],99 mg
same,Specific Activity,[1]; [21],"5,462,666 Au/mg"
same,Activity,[1]; [22],"1,638,840 AU/ml"
same,Increase in amount of protein vs. control,[1]; [22],1
same,Protein Concentration,[1]; [22],0.30 mg/mL
same,Protein Produced from 1 liter Culture Fluid,[1]; [22],99 mg
same,Specific Activity,[1]; [22],"5,462,666 Au/mg"
same,Activity,[1]; [23],"1,638,840 AU/ml"
same,Increase in amount of protein vs. control,[1]; [23],1
same,Protein Concentration,[1]; [23],0.30 mg/mL
same,Protein Produced from 1 liter Culture Fluid,[1]; [23],99 mg
same,Specific Activity,[1]; [23],"5,462,666 Au/mg"
same,Activity,[1]; [24],"1,638,840 AU/ml"
same,Increase in amount of protein vs. control,[1]; [24],1.03
same,Protein Concentration,[1]; [24],0.31 mg/mL
same,Protein Produced from 1 liter Culture Fluid,[1]; [24],102.3 mg
same,Specific Activity,[1]; [24],"5,286,580 Au/mg"
same,Activity,[1]; [25],"1,638,840 AU/ml"
same,Increase in amount of protein vs. control,[1]; [25],1.03
same,Protein Concentration,[1]; [25],0.31 mg/mL
same,Protein Produced from 1 liter Culture Fluid,[1]; [25],102.3 mg
same,Specific Activity,[1]; [25],"5,286,580 Au/mg"
same,Activity,[1]; [26],"1,638,840 AU/ml"
same,Increase in amount of protein vs. control,[1]; [26],1.03
same,Protein Concentration,[1]; [26],0.31 mg/mL
same,Protein Produced from 1 liter Culture Fluid,[1]; [26],102.3 mg
same,Specific Activity,[1]; [26],"5,286,580 Au/mg"
same,Increase in amount of protein vs. control,[1]; [27],1.03
same,Protein Concentration,[1]; [27],0.31 mg/mL
same,Protein Produced from 1 liter Culture Fluid,[1]; [27],102.3 mg
same,Specific Activity,[1]; [27],"5,286,580 Au/mg"
same,Activity,[2]; [28],"102,400 AU/ml"
same,Protein Concentration,[2]; [28],0.19 Mg/ml
same,Protein increase vs. Control,[2]; [28],0.95
same,Specific Activity,[2]; [28],"538,947 AU/mg"
same,mg protein/liter,[2]; [28],62.7 mg protein/liter
same,yield of bacteriocin OR-7 versus the control,[2]; signal peptide of another strain added to PVD-32 + LWP-252,does not increase
same,Activity,[3],"13,107,200 AU/ml"
same,Increase in the amount of protein produced vs. in control,[3],4.25
same,Protein Concentration,[3],3.4 mg/mL
same,Protein produced per one liter of medium,[3],510 mg
same,Specific Activity,[3],"3,855,058 AU/mg"

# Source: patent publication US7354904B2, “Bacteriocin inducer peptides” (priority 2005, dated 2008)
